In patent EP0051819A2, “Tetra-substituted benzene derivatives, their preparation and pharmaceutical preparations containing them” (F. HOFFMANN-LA ROCHE & CO. Aktiengesellschaft, priority 1980, dated 1982):
Converted amounts (≈) assume the structure as drawn. Read-outs that look alike come from different tables or passages of the source.

Key:
[1] = Cytotoxicity in HeLa cells, observed microscopically in the antiviral test; assay type: cell-based; conditions: human, hela cells
Protocol: (§1) Eine Suspension von HeLa-Zellen (6 x 10^4) wurde mit Rhinovirus HGP (3 x 10^3 Plaque-bildende Einheiten, PFU) gemischt und auf eine Mikrotestplatte gebracht, die die zu testenden Verbindungen in zunehmender Verdünnung enthielten. Die Zellen wurden dann in Eagle's Minimalnährlösung, die 2% Kalbsserum, 1% Tryptosephosphatbrühe, 100 ug/ml Streptomycin und 20 Einheiten/ml Penicillin G enthielt, kultiviert. Der virale zytopathogenische Effekt (C.P.E.) und die Cytotoxizität wurden mikroskopisch nach 2 Tagen Kultivierung bei 33°C beobachtet. Die antivirale Aktivität (IC50) der Testverbindungen ist diejenige Konzentration,.bei der C.P.E. um 50% gegenüber der Kontrollkultur gehemmt war. Die Cytotoxizität ist als Minimalkonzentration angegeben, bei der toxische Symptome beobachtet wurden.(cytotoxische Dosis).

Rhinovirus HGP = assay: Antiviral activity: inhibition of viral cytopathogenic effect (C.P.E.) in HeLa cell culture; assay type: cell-based; conditions: for IC50: Enterovirus, HeLa, 48 h; for antivirale Aktivität: qualitative statement in the description, no virus named
Protocol: as §1

[2] = minimal concentration at which toxic symptoms were observed (cytotoxische Dosis), 2 days at 33°C, read-out: Cytotoxizität
[3] = concentration inhibiting C.P.E. by 50% versus control culture, HeLa cells, 2 days at 33°C, read-out: IC50

| Compound | MCC at 48 h [1, 2] [µg/mL] | IC50 (Rhinovirus HGP; [3]) [µg/mL] | MCC at 48 h [1] [µg/mL] | antivirale Aktivität (Rhinovirus HGP) | IC50 (Rhinovirus HGP) [µg/mL] |
| --- | --- | --- | --- | --- | --- |
| CCOC(=O)Oc1cc(OC)cc(OC)c1C(=O)NCc1ccc(OC)cc1 | > 8 | 0.1 (≈ 0.257 µM) | – | – | – |
| CCOc1cc(OC)cc(O)c1C(=O)CCc1ccc(OC)cc1 [1-(2-Ethoxy-6-hydroxy-4--methoxyphenyl)-3-(4-methoxy-phenyl)-1-propanon] | 0.9 | 0.01 to 0.03 (≈ 0.0303 to 0.0908 µM) | – | – | – |
| COc1cc(O)c(C(=O)CCc2ccc(C)cc2)c(OC)c1 [1-(2-Hydroxy-4,6-dimethoxy-phenyl)-3-(4-methylphenyl)-1--propanon] | > 8 | 0.01 to 0.03 (≈ 0.0333 to 0.0999 µM) | – | – | – |
| COc1cc(O)c(C(=O)CCc2ccc3c(c2)OCO3)c(OC)c1 [1-(2-Hydroxy-4,6-dimethoxy-phenyl)-3-[3,4-(methylendioxy)-phenyl]-1-propanon] | > 8 | 0.03 to 0.1 (≈ 0.0908 to 0.303 µM) | – | – | – |
| COc1cc(O)c(C(=O)CCc2ccc(SC)cc2)c(OC)c1 [1-(2-Hydroxy-4,6-dimethoxy-phenyl)-3-[4-(methylthio)-phenyl]-1-propanon] | 8 | 0.01 to 0.03 (≈ 0.0301 to 0.0902 µM) | – | – | – |
| COc1ccc(C(=O)CC(=O)c2c(O)cc(OC)cc2OC)cc1 [1-(2-Hydroxy-4,6-dimethoxyphenyl)-3-(4-methoxyphenyl)-1,3-propandion] | 8 | 0.01 to 0.03 (≈ 0.0303 to 0.0908 µM) | – | – | – |
| COc1cc(O)c(C(=O)CCc2ccc(C)o2)c(OC)c1 [1-(2-Hydroxy-4,6-dimethoxyphenyl)-3-(5-methyl-2-furyl)-l-propanon] | > 8 | 0.9 (≈ 3.1 µM) | – | – | – |
| COc1cc(O)c(C(=O)CCC2CCC(C)O2)c(OC)c1 (stereo not drawn) [1-(2-Hydroxy-4,6-dimethoxyphenyl)-3-(tetrahydro-5-methyl-2-furyl)-1-propanon] | > 8 | 0.9 (≈ 3.06 µM) | – | – | – |
| COc1ccc(CCC(=O)c2c(O)cc(OC(C)C)cc2OC)cc1 [1-(2-Hydroxy-4-isopropoxy-6-methoxyphenyl)-3-(4-methoxyphenyl)-1-propanon] | 8 | 0.03 to 0.1 (≈ 0.0871 to 0.29 µM) | – | – | – |
| CCCOc1cc(O)c(C(=O)CCc2ccc(OC)cc2)c(OC)c1 [1-(2-Hydroxy-6-methoxy-4-propoxyphenyl)-3-(4-methoxyphenyl)-1-propanon] | 2.7 | 0.004 to 0.01 (≈ 0.0116 to 0.029 µM) | – | – | – |
| COc1ccc(CCC(=NO)c2c(O)cc(OC)cc2OC)cc1 [1-(2-Hydroxy--4,6-dimethoxyphenyl)-3-(4-methoxyphenyl)-1-propanon-oxim] | > 10 | – | – | – | – |
| CCOc1cc(O)c(C(=S)CCc2ccc(OC)cc2)c(OC)c1 [1-(4-Ethoxy-2-hydroxy-6-methoxyphenyl)-3-(4-methoxyphenyl)-1-propanthion] | – | 0.002 (≈ 0.00577 µM) | 2.7 | besonders starke antivirale Aktivität | – |
| COc1ccc(CCC(=O)c2c(O)cc(SC)cc2OC)cc1 [1-[2-Hydroxy-6-methoxy-4-(methylthio)-phenyl]-3-(4-methoxyphenyl)-1-propanon] | 1 | 0.1 (≈ 0.301 µM) | – | – | – |
| CCOc1cc(OC)c(C(=O)NCc2ccc(OC)cc2)c(OP(=O)(O)O)c1 [2--[(p-Anisylamino)carbonyl]-5-ethoxy-3-methoxyphenyl-dihydrogenphosphat] | > 8 | – | – | besonders starke antivirale Aktivität | 0.01 to 0.03 (≈ 0.0243 to 0.0729 µM) |
| COc1cc(O)c(C(=O)NCc2cccs2)c(OC)c1 [2-Hydroxy-4,6-dimethoxy-N-(2--thenyl)benzamid] | 8 | 0.03 (≈ 0.102 µM) | – | – | – |
| COc1cc(O)c(C(=O)NCc2ccc[nH]2)c(OC)c1 [2-Hydroxy-4,6-dimethoxy-N-(2-pyrrolylmethyl)benzamid] | > 8 | 2.7 (≈ 9.77 µM) | – | – | – |
| COc1ccc(NC(=O)c2c(O)cc(OC)cc2OC)cc1 [2-Hydroxy-4,6-dimethoxy-N-(4--methoxyphenyl)benzamid] | > 10 | 0.03 to 0.1 (≈ 0.0989 to 0.33 µM) | – | – | – |
| COc1cc(O)c(C(=O)NCc2ccc3c(c2)OCO3)c(OC)c1 [2-Hydroxy-4,6-dimethoxy-N-(m,p--methylenedioxybenzyl)benzamid] | > 8 | 0.003 to 0.01 (≈ 0.00905 to 0.0302 µM) | – | – | – |
| COc1cccc(CNC(=O)c2c(O)cc(OC)cc2OC)c1 [2-Hydroxy-4,6-dimethoxy-N-(m--methoxybenzyl)benzamid] | > 8 | 0.002 (≈ 0.0063 µM) | – | – | – |

| Compound | MCC at 48 h [1, 2] [µg/mL] | IC50 (Rhinovirus HGP; [3]) [µg/mL] | MCC at 48 h [1] [µg/mL] | antivirale Aktivität (Rhinovirus HGP) | IC50 (Rhinovirus HGP) [µg/mL] |
| --- | --- | --- | --- | --- | --- |
| COc1cc(O)c(C(=O)NCc2ccc(C)cc2)c(OC)c1 [2-Hydroxy-4,6-dimethoxy-N-(p--methylbenzyl)benzamid] | 8 | 0.01 to 0.03 (≈ 0.0332 to 0.0996 µM) | – | – | – |
| COc1ccc(CNC(=O)c2c(O)cc(OC)cc2OC)cc1 [2-Hydroxy-4,6-dimethoxy-N-(p-methoxybenzyl)benzamid] | 8 | 0.002 (≈ 0.0063 µM) | – | – | – |
| COc1cc(O)c(C(=O)NCc2ccc(OC)c(OC)c2)c(OC)c1 [2-Hydroxy-4,6-dimethoxy-N--(m,p-dimethoxybenzyl)benzamid] | 8 | 0.3 (≈ 0.864 µM) | – | – | – |
| COc1cc(O)c(C(=O)NCC2CCCS2)c(OC)c1 (stereo not drawn) [2-Hydroxy-4,6-dimethoxy-N--(tetrahydro-2-thenyl)benzamid] | 8 | 0.004 to 0.01 (≈ 0.0135 to 0.0336 µM) | – | – | – |
| CNC(=O)c1c(O)cc(OC)cc1OC [2-Hydroxy-4,6-dimethoxy-N--methylbenzamid] | > 8 | 0.9 (≈ 4.26 µM) | – | – | – |
| COc1cc(O)c(C(=O)NCc2ccncc2)c(OC)c1 [2-Hydroxy-4,6-dimethoxy-N-[(4-pyridyl)methyl]benzamid] | 8 | 0.9 (≈ 3.12 µM) | – | – | – |
| COc1cc(O)c(C(=O)NCc2ccc(SC)cc2)c(OC)c1 [2-Hydroxy-4,6-dimethoxy-N-[p--(methylthio)benzyl]benzamid] | > 8 | 0.002 (≈ 0.006 µM) | – | besonders starke antivirale Aktivität | – |
| COc1ccc(CNC(=O)c2c(O)cc(OCC=C(C)C)cc2OC)cc1 [2-Hydroxy-6-methoxy-4-(3-methyl-2-butenyloxy)-N-(p-methoxybenzyl)benzamid] | > 8 | 0.001 to 0.002 (≈ 0.00269 to 0.00538 µM) | – | besonders starke antivirale Aktivität | – |
| CCCOc1cc(O)c(C(=O)NCc2ccc(OC)cc2)c(OC)c1 [2-Hydroxy-6-methoxy-4-propoxy-N-(p-methoxybenzyl)benzamid] | > 20 | 0.001 to 0.003 (≈ 0.0029 to 0.00869 µM) | – | besonders starke antivirale Aktivität | – |
| COc1cc(O)c(C(=O)NCc2ccc(OC)c(O)c2)c(OC)c1 [2-Hydroxy-N-(m-hydroxy-p-methoxy-benzyl)-4,6-dimethoxybenzamid] | 2.7 | 0.1 to 0.3 (≈ 0.3 to 0.9 µM) | – | – | – |
| COc1cc(O)c(C(=O)NCc2ccc(O)cc2)c(OC)c1 [2-Hydroxy-N-(p-hydroxybenzyl)--4,6-dimethoxybenzamid] | > 8 | 0.3 (≈ 0.989 µM) | – | – | – |
| COc1ccc(CNC(=O)c2c(OC)cc(OC)cc2O[C@@H]2O[C@H](CO)[C@@H](O)[C@H](O)[C@H]2O)cc1 [2-[(p-Anisyl-amino)carbonyl]-3,5-dimethoxyphenyl-ß-D-glucopyranosid] | > 10 | 2.7 (≈ 5.63 µM) | – | – | – |
| CCOc1cc(OC)c(C(=O)NCc2ccc(OC)cc2)c(OC(C)=O)c1 [2-[(p-Anisyl-amino)carbonyl]-5-ethoxy-3-methoxypheny]acetat] | > 8 | 0.3 (≈ 0.803 µM) | – | – | – |
| COc1ccc(CNC(=O)c2c(OC)cc(OC)cc2OC(=O)c2ccccc2)cc1 [2-[(p-Anisylamino)carbonyl]-3,5-dimethoxyphenyl-benzoat] | > 8 | 0.03 (≈ 0.0712 µM) | – | – | – |
| COc1ccc(CNC(=O)c2c(OC)cc(OC)cc2OP(=O)(O)O)cc1 [2-[(p-Anisylamino)carbonyl]-3,5-dimethoxyphenyl-dihydrogenphosphat] | > 8 | – | – | – | 0.006 to 0.01 (≈ 0.0151 to 0.0252 µM) |
| CCCCCCCCCCCCCCCCCC(=O)Oc1cc(OC)cc(OC)c1C(=O)NCc1ccc(OC)cc1 [2-[(p-Anisylamino)carbonyl]-3,5-dimethoxyphenyl-octadecanoat] | > 8 | 0.3 to 0.9 (≈ 0.514 to 1.54 µM) | – | – | – |
| COc1ccc(CNC(=O)c2c(OC)cc(OC)cc2O[C@@H]2O[C@H](COC(C)=O)[C@@H](OC(C)=O)[C@H](OC(C)=O)[C@H]2OC(C)=O)cc1 [2-[(p-Anisylamino)carbonyl]-3,5-dimethoxyphenyl-tetra-O-acetyl-ß-D-glucopyranosid] | > 10 | 2.7 (≈ 4.17 µM) | – | – | – |
| C=CCOc1ccc(CNC(=O)c2c(OC)cc(OC)cc2OC(=O)c2ccccc2)cc1 [2-{[[p-(Allyloxy)benzyl]amino]carbonyl}-3,5-dimethoxyphenyl-benzoat] | 2.7 | 0.002 (≈ 0.00447 µM) | – | besonders starke antivirale Aktivität | – |
| C=CCOc1ccc(CNC(=O)c2c(OC)cc(OC)cc2OC(=O)CCCCCCCCCCCCCCCCC)cc1 [2-{[[p-(Allyloxy)benzyl]amino]carbonyl}-3,5-dimethoxyphenyl-octadecanoat] | > 8 | 0.3 (≈ 0.492 µM) | – | – | – |
